Test results as given in paper PMC12040169 (PLOS Biology, 2025).

Experiment: in vitro
Conditions: human, hela cells, % viability

SMILES	viability at 28.5 h, 10 µM
COc1cc(/C=N/NC(=O)C(=O)Nc2ccc(C)c(C)c2)ccc1O [CBK262225]	86%
Cc1ccc2c(c1)C(=O)NCC1(CCN(C(=O)c3ccco3)CC1)O2 [CBK282894]	100%
O=C(CSc1nc2ccccc2[nH]1)c1ccc2ccccc2c1 [CBK261739]	104%
O=C(c1cc2cc(F)ccc2[nH]1)N1CCN(c2ncccn2)CC1 [CBK107280]	91.8%
COc1cccc(-c2ccc(NS(=O)(=O)c3ccc4c(c3)CCC(=O)N4)cc2)c1 [CBK286373]	87.1%
CCc1nn(CC(=O)N2CCC(C)CC2)c(=O)c2cc3occc3n12 [CBK283675]	76.4%
O=C(CN1CCCCC1)Nc1c(-c2ccccc2)c2cc(Br)ccc2[nH]c1=O [CBK263351]	94.7%
Cc1sc2ncn(CC(=O)Nc3cccnc3)c(=O)c2c1C [CBK306057]	92.5%
COc1cc(CNc2cc(-c3ccc(N4CCOCC4)cc3)ncn2)cc(OC)c1OC [CBK091174]	93.9%
Cc1cccc(Nc2[nH]c3cc(C)ccc3c2[N+](=O)[O-])c1 [CBK266303]	81.9%
Cc1ccccc1OCc1nnc(SCC(=O)N2CCOCC2)n1C [CBK265850]	96.1%
c1ccc(OCCOc2nccnc2-c2ccc3c(c2)OCO3)cc1 [CBK106714]	96.1%
O=C(COc1ccc([N+](=O)[O-])cc1)Nc1ccc2oc(-c3ccc(Br)cc3)nc2c1 [CBK263444]	106%
Nc1ncn(CC(O)CO)c2nc(N3CCOCC3)nc1-2 (stereo not shown) [CBK009231]	90.8%
CCc1nc2ccc(C(=O)NC3=NC(=O)CS3)cn2c1N(CC)C(C)=O [CBK145839]	100%
CCCC/C(=N/N=C(\CCCC)c1ccncc1)c1ccncc1 [CBK016521]	120%
Cc1cccc2c3c([nH]c12)C1(CCCN(Cc2ccc(F)cc2Cl)C1)NCC3 (stereo not shown) [CBK039339]	90%
CC1CN(C(=O)NC(=O)c2ccc(-c3csnn3)cc2)CC(C)O1 (stereo not shown) [CBK017091]	87.7%
CC(O)C(=O)NS(=O)(=O)c1ccccc1 (stereo not shown) [CBK038300]	104%

SMILES	viability at 28.5 h, 10 µM
CCOc1ccc(NC(=O)C2CC=CCC2C(=O)O)cc1 (stereo not shown) [CBK274682]	110%
Cc1nc2sccn2c1CN1CCCC(C(=O)N2CCOCC2)C1 (stereo not shown) [CBK305390]	97.6%
c1cc(CCNc2cc(-c3ccc4c(c3)OCO4)ncn2)ccn1 [CBK037689]	99.5%
Cc1nnc(N/N=C\c2c(Cl)cccc2Cl)[nH]c1=O [CBK027921]	110%
NC(=O)CN1CC2(CCN(Cc3cccc4cccnc34)CC2)c2ccccc21 [CBK137021]	123%
COc1cccc(CNC2CC2)c1OCc1ccccc1 [CBK270009C]	90.6%
FC(F)(F)c1ccc(Sc2ccncc2)nc1 [CBK115217]	108%
O=C(Nc1snnc1-c1ccc(Cl)cc1)c1ccco1 [CBK153242]	102%
Cc1ccc(-c2cc(C(=O)N(C)Cc3cccn3C)[nH]n2)o1 [CBK283324]	100%
O=C(CN1C(=O)S/C(=C\C=C\c2ccccc2)C1=O)Nc1cccc2c1C(=O)c1ccccc1C2=O [CBK263870]	87.1%
CC(=O)Nc1cc(S(N)(=O)=O)c(F)cc1C [CBK034356]	94.1%
COc1ccc(C2(CNC(=O)C(O)COc3ccccc3)CCCC2)cc1OC (stereo not shown) [CBK014053]	88.5%
C1CN(c2nc(N3CCOCC3)nc(N3CCOCC3)n2)CCN1 [CBK261380]	84.9%
CCOC(=O)CNc1ccc(C(F)(F)F)cc1 [CBK057732]	94.4%
Cc1cc(N2CCOC(c3cccs3)C2)ccn1 (stereo not shown) [CBK304691]	96.2%
CN(CCN1CCCCC1)C(=O)Cn1ccnc1-c1ccccc1 [CBK281900]	91.3%
O=C(COc1cccnc1)N1CCCc2ccccc21 [CBK200258]	92.5%
O=C(C1CCCCC1)N1CCC(c2nnc3n2CCCCC3)CC1 [CBK284613]	92.7%
